Data taken from US20220389058A1, “PEPTIDES AND COMPOSITIONS FOR USE IN COSMETICS AND MEDICINE” (LIPOTRUE, S.L., priority 2019, published 2022).

How the values were obtained:
HEKa cells = assay: Expression of genes related to epidermal cell cohesion, RT-qPCR in HEKa (Example 9); assay type: cell-based, Human; details: 0.01 mg/mL, 24 hours
Method: A stock solution of the peptide was prepared in water at 1 mg/mL. Working solution was freshly prepared at the specified concentration from stock solution in the corresponding supplemented medium.
RNA (ribonucleic acid) extraction and RT-qPCR (reverse transcription quantitative polymerase chain reaction) were performed. Briefly, HEKa cells were seeded in duplicate (n=2) in 6-well plates at a density of 4×10^5 cells/well and maintained at standard culture conditions (Medium Epilife supplemented with 1% (v/v) EDGS and 1% (v/v) penicillin/streptomycin; 37° C., 95% room humidity, 5% CO2) for 24 hours.
Then, cells were treated with peptide Ac-SEQ ID NO: 1-NH2, Ac-SEQ ID NO: 2-NH2 or Ac-SEQ ID NO: 3-NH2 at the concentration of 0.01 mg/mL for 24 hours. Untreated cells were used as basal or negative control.
Cells were finally lysed, and replicates were pooled together for RNA extraction using Qiagen RNeasy Mini kit following manufacturer's instructions. Purified RNAs were used to generate the corresponding cDNAs (complementary deoxyribonucleic acids) by reverse transcription using a commercial kit High capacity cDNA reverse transcription kit (Applied Biosystems) which served as templates for amplification. RT-qPCR was performed with the panel of appropriate TaqMan assay probes for genes shown in table 1 (plus GAPDH—Glyceraldehyde 3-phosphate dehydrogenase—that was used as housekeeping gene) and 2×gene expression Master Mix using StepOne plus Real-Time PCR instrument. Amplification included 40 cycles of: 15 seconds at 95° C. (denaturation) and 1 minute at 60° C. (Annealing and extension) (Arya, M., Shergill, I. S., Williamson, M., Gommersall, L., Arya, N., Patel, H. R. (2005) Basic principles of real-time quantitative PCR. Expert Rev. Mol. Diagn.; 5(2):209-19; and Jozefczuk, J. and Adjaye, J. (2011) Quantitative real-time PCR-based analysis of gene expression. Methods Enzymol. 500; 99-109).
The obtained data was analysed using the ΔΔCt method, which provides the target gene expression values as fold changes in the treated sample compared with an untreated basal sample. Both samples were normalized with the relative expression of a housekeeping gene GAPDH (Glyceraldehyde 3-phosphate dehydrogenase).

[1] = tested on: recombinant mushroom tyrosinase; assay: Tyrosinase activity, L-DOPA/dopachrome absorbance (Example 11); assay type: biochemical; details: 0.05-2.5 mg/mL (Ac-SEQ ID NO: 4-NH2: 0.005-2.5 mg/mL); 30 minutes preincubation, L-DOPA, 2 hours, absorbance 450 nm; vs non-treated control (100%)
Method: Briefly, different concentrations of Ac-SEQ ID NO: 1-NH2 (0.05, 0.25, 0.5 and 2.5 mg/mL), Ac-SEQ ID NO: 2-NH2 (0.05, 0.25, 0.5 and 2.5 mg/mL), Ac-SEQ ID NO: 3-NH2 (0.05, 0.25, 0.5 and 2.5 mg/mL) and Ac-SEQ ID NO: 4-NH2 (0.005, 0.025, 0.05, 0.25, 0.5 and 2.5 mg/mL) and the positive control kojic acid (400 and 800 μM) were incubated with recombinant mushroom tyrosinase for 30 minutes before the addition of L-DOPA (L-3,4 dihidroxiphenilalanine, 2.5 mg/mL in PBS). After 2 hours' reaction at room temperature, the absorbance at 450 nm of each well was determined using the microplate reader Multiskan FC (Thermo Fisher Scientific, Mass., USA), which is directly proportional to the amount of dopachrome in the reaction mixture.

IL-33 = assay: Production of protein IL-33 in HDFa cells stimulated with IFNγ, ELISA (Example 8); assay type: cell-based, human; details: HDFa cells exposed to IFNγ (300 U/mL), 0.005, 0.01 and 0.05 mg/mL, 24 hours, cell lysates
Method: Adult human dermal fibroblasts (HDFa) were seeded on 24-well plate at concentration of 1×10^5 cells/mL in their corresponding growth media and incubated for 24 hours in standard culture conditions; at that time, three different concentrations (0.005, 0.01 and 0.05 mg/mL) of the Ac-SEQ ID NO: 1-NH2 were added in presence of IL-33-induction stimulus (IFNγ, 300 U/mL). Cells without stimuli were also included as basal group. Positive control group was cells treated with 300 U/mL of IFNγ, but without being treated with a peptide of the present invention. 24 hours later, conditioned media was collected, and cells processed for protein extraction.
IL-33 levels in the cell lysates were analysed with a commercial ELISA kit (DuoSet ELISA. R&D). Absorbances were measured with an automated spectrophotometer plate-reader.

integrin α9β1 (Itg9) = assay: Integrin α9β1 protein expression, immunofluorescence in HDLMVEC (Example 19); assay type: cell-based, Human
Method: HDLMVEC were cultured on coverslips in Microvascular Endothelial Cell Growth (MECG) Medium at a density of 16.000 cell/cm^2 and 37° C. in a humidified atmosphere with 5% CO2.
When cell confluence was around 70-80%, cells were treated with 0.05 mg/mL Ac-SEQ ID NO:1-NH2 in MECG medium for 24 hours. Then, cells were washed twice with PBS, fixed with 4% formaldehyde and permeabilized with Triton 0.2%. Next, samples were blocked for 1 hour with PBS/BSA 5%, in order to avoid nonspecific antibody binding.
Itg9 was stained with 1:50 anti-Itg9 antibody in PBS/BSA 1%, during 1.5 hours at room temperature. After proper washing with PBS, actin was stained with 50 μg/mL Phalloidin during 1 hour at room temperature. Then, cells were washed with PBS and incubated with 5 μg/mL of the secondary antibody Goat anti-Rabbit IgG for 1 hour at room temperature. Finally, coverslips were mounted using Vectashield with DAPI, that stains nuclei, and samples were kept protected from light at 4° C. until microscopic images were acquired.
Microscopic images were acquired using 10×objective. […]
Images were analyzed using Image J software. Shortly, threshold was adjusted to select Itg9 staining and mean fluorescent was measured. The number of cells was counted using the DAPI staining. […]

## Ac-Arg-Arg-Gln-Met-Arg-Glu-NH2 (Ac-RRQMRE-NH2) [Ac-SEQ ID NO: 1-NH2]
HEKa cells
  CDSN Fold change between treated cells and basal control: 1.46 Fold change
  CLDN1 Fold change between treated cells and basal control: 1.57 Fold change
  CLDN4 Fold change between treated cells and basal control: 2.64 Fold change
  DSC2 Fold change between treated cells and basal control: 1.23 Fold change
  DSP Fold change between treated cells and basal control: 1.28 Fold change
  JUP Fold change between treated cells and basal control: 1.42 Fold change
  OCLN Fold change between treated cells and basal control: 1.98 Fold change
  PCDH1 Fold change between treated cells and basal control: 2.41 Fold change
  PKP2 Fold change between treated cells and basal control: 1.72 Fold change
  PPL Fold change between treated cells and basal control: 1.54 Fold change
  TJP1 Fold change between treated cells and basal control: 1.25 Fold change
[1]
  tyrosinase activity: inhibited tyrosinase in all the concentrations tested
IL-33
  IL-33 protein levels: reduces the IL-33 protein levels produced by HDFa cells exposed to IFNγ (300 U/mL) in a dose-dependent manner
Integrin α9β1 (Itg9); 0.05 mg/mL, 24 hours, basal = 100.00
  % Mean of integrin α9β1 (Itg9) compared to untreated cells: 153.56%
Integrin α9β1 (Itg9); 24 hours of treatment
  increase of the expression of Itg9 when compared with the untreated cells: > 50%
